# Measurements published in patent US8674115B2, “CRTH2 modulators” (Ironwood Pharmaceuticals, Inc., priority 2009, dated 2014).
# Assays:
# CRTH2 [1] = molecular target: T1, CRTH2 (Homo sapiens, UniProt Q9Y5Y4); assay: Human whole blood CD11b antagonist assay (CD11b expression in eosinophils); format: cell-based; design: endogenous in cells; host or cells: eosinophils in human whole blood; details: challenged with 10 nM 15R-Methyl-PGD2, read-out: CD11b Antag IC50(nM) [HuEos-HuWB-vs10nM15R]
# T1 sequence (Q9Y5Y4 1-395): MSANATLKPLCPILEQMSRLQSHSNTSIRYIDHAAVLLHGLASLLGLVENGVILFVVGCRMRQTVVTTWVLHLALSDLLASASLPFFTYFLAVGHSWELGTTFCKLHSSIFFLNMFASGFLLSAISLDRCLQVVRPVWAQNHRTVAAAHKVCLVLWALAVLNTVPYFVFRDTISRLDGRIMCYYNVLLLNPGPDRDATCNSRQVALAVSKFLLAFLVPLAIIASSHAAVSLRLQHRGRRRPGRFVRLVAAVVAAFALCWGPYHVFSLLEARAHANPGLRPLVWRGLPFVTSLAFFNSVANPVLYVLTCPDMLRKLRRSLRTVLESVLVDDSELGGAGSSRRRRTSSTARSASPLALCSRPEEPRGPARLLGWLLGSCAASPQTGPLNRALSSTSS
# Experimental: Human Whole Blood CD11B Antagonist Assay (Modified from Nicholson, et al. Pulmonary Pharmacology and Therapeutics: 20 (2007); 52-59).
# The potential CRTH2 antagonist activity of certain compounds was tested in human whole blood using an assay that tests the ability of the compounds to block the CD11b expression in eosinophils by 15-R-methyl-PGD2. A CRTH2 antagonist should block CD11b expression by subsequently added 15-Methyl-PGD2. Human whole blood (200 μL) was incubated at 37° C. for 10 minutes in the presence of various concentrations of test compounds before being challenged with the agonist 15R-Methyl-PGD2 (10 nM). Reactions were terminated by the addition of ice-cold PBS+0.5% BSA+2 mMEDTA (1 mL) and centrifugation (300×g for 5 minutes at 4° C.) Cells were then incubated at 4° C. for 10 min in the presence of human IgG. Cells were then incubated for 30-45 min with a mixture of PE-Cy5-labeled mouse anti-human CD16 (10 ul; BD Biosciences) and FITC-labeled mouse anti-human CD11b (10 μL; Beckman Coulter.) After rinsing (1 mL ice-cold PBS+0.5% BSA+2 mMEDTA), red blood cells were lysed by the addition of 1 mL ice-cold H2O to the cell pellet for 30 sec-1 min immediately followed by the addition of 3.5% NaCl (300 μL.) Cells were then rinsed (2×-1 ml ice cold PBS+0.5% BSA+2 mMEDTA) and fixed in PBS containing 1% formaldehyde. The distribution of fluorescence intensities was measured by flow cytometry. Eosinophils were gated out on the basis of their granularity (high side scatter) and absence of CD-16. CD11b was then measured on this eosinophil population on the basis of fluorescence due to FITC.
# CRTH2 [2] = molecular target: T1, CRTH2; assay: DPBS CD11b antagonist assay (CD11b expression in eosinophils); format: cell-based; details: challenged with 10 nM 15R-Methyl-PGD2, read-out: CD11b Antag IC50(nM) [HuEos-DPBS-vs10nM15R]
# Experimental: DPBS CD11b Antagonist Assay.
# The potential CRTH2 antagonist activity of certain compounds was tested using a CD11b expression assay using essentially the method described by Monneret et al. (J Pharmacol Exp Ther 304:349-55, 2003). Briefly, polymorphonuclear cells (0.5 ml; 10^6/ml cells) in PBS containing 0.9 mM CaCl2 and 0.5 mM MgCl2) were preincubated with various concentrations of test compounds at room temperature for 10 minutes before they were challenged with the agonist 15R-Methyl-PGD2 (10 nM). The incubations were terminated by the addition of ice-cold FACSFlow (BD Biosciences; Cat# 342003) and centrifugation (400 g for 5 minutes at 4° C.). The cells were then incubated for 30 minutes at 4° C. with a mixture of PE-labeled mouse anti-human VLA-4 (5 μl; BD Biosciences) and FITC-labeled mouse anti-human CD11b (10 μl; Beckman Coulter). The cells were then incubated with Optilyse C (0.25 ml; Beckman Coulter) for 15 minutes, centrifuged, and then fixed in PBS (0.4 ml; calcium and magnesium free) containing 1% formaldehyde. The distribution of fluorescence intensities among 60,000 cells was measured by flow cytometry. Eosinophils were gated out on the basis of their granularity (high side scatter) and labeling with VLA-4 (PE fluorescence). CD11b was then measured in the eosinophil region on the basis of fluorescence due to FITC. All data were corrected for the value obtained for the corresponding isotope control antibody.
IC50 (CRTH2 [1]),IC50 (CRTH2 [2]),SMILES
< 5 nM,–,"Cc1c(Cc2ccccc2S(=O)(=O)c2ccccc2)cc(-c2ccncc2)n1CC(=O)O [I-1, 2-(2-methyl-3-(2-(phenylsulfonyl)benzyl)-5-(pyridin-4-yl)-1H-pyrrol-1-yl)acetic acid]"
5 to 100 nM,–,"Cc1c(Cc2ccccc2S(=O)(=O)c2ccccc2)cc(-c2cccnc2)n1CC(=O)O [I-2, 2-(2-methyl-3-(2-(phenylsulfonyl)benzyl)-5-(pyridin-3-yl)-1H-pyrrol-1-yl)acetic acid]"
5 to 100 nM,–,"Cc1c(Cc2ccccc2S(=O)(=O)N2CCOCC2)c(C#N)c(-c2ccccc2)n1CC(=O)O [I-3, 2-(3-cyano-5-methyl-4-(2-(morpholinosulfonyl)benzyl)-2-phenyl-1H-pyrrol-1-yl)acetic acid]"
5 to 100 nM,< 5 nM,"Cc1c(Cc2ccccc2S(=O)(=O)c2ccccc2)c(C#N)c(-c2ccccc2)n1CC(=O)O [I-4, 2-(3-cyano-5-methyl-2-phenyl-4-(2-(phenylsulfonyl)benzyl)-1H-pyrrol-1-yl)acetic acid]"
100 to 500 nM,< 5 nM,"Cc1c(Cc2ccccc2S(=O)(=O)c2ccccc2)cc(-c2ccccc2)n1CC(=O)O [I-6, 2-(2-methyl-5-phenyl-3-(2-(phenylsulfonyl)benzyl)-1H-pyrrol-1-yl)acetic acid]"
5 to 100 nM,–,"Cc1c(Cc2ccccc2S(=O)(=O)c2ccccc2)cc(-c2cccc(F)c2)n1CC(=O)O [I-8, 2-(5-(3-fluorophenyl)-2-methyl-3-(2-(phenylsulfonyl)benzyl)-1H-pyrrol-1-yl)acetic acid]"
5 to 100 nM,5 to 100 nM,"Cc1cc(Cc2ccccc2S(=O)(=O)N2CCCC2)c(C)n1CC(=O)O [I-9, 2-(2,5-dimethyl-3-(2-(pyrrolidin-1-ylsulfonyl)benzyl)-1H-pyrrol-1-yl)acetic acid]"
5 to 100 nM,–,"Cc1c(Cc2ccccc2S(=O)(=O)N2CCCC2)c(C#N)c(-c2ccccc2)n1CC(=O)O [I-11, 2-(3-cyano-5-methyl-2-phenyl-4-(2-(pyrrolidin-1-ylsulfonyl)benzyl)-1H-pyrrol-1-yl)acetic acid]"
5 to 100 nM,–,"Cc1c(Cc2ccccc2S(=O)(=O)c2ccccc2)c(-c2ccccc2)c(-c2ccccc2)n1CC(=O)O [I-12, 2-(2-methyl-4,5-diphenyl-3-(2-(phenylsulfonyl)benzyl)-1H-pyrrol-1-yl)acetic acid]"
5 to 100 nM,–,"Cc1c(Cc2ccccc2S(=O)(=O)N2CCOCC2)cc(-c2ccccc2)n1CC(=O)O [I-13, 2-(2-methyl-3-(2-(morpholinosulfonyl)benzyl)-5-phenyl-1H-pyrrol-1-yl)acetic acid]"
100 to 500 nM,–,"Cc1c(Cc2ccccc2S(=O)(=O)N2CCCC2)c(C#N)c(C2CCCCC2)n1CC(=O)O [I-14, 2-(3-cyano-2-cyclohexyl-5-methyl-4-(2-(pyrrolidin-1-ylsulfonyl)benzyl)-1H-pyrrol-1-yl)acetic acid]"
100 to 500 nM,–,"Cc1c(Cc2ccccc2S(=O)(=O)c2ccccc2)cc(-c2ccc(F)cc2)n1CC(=O)O [I-15, 2-(5-(4-fluorophenyl)-2-methyl-3-(2-(phenylsulfonyl)benzyl)-1H-pyrrol-1-yl)acetic acid]"
100 to 500 nM,–,Cc1c(Cc2ccccc2S(=O)(=O)N2CCCC2)cc(-c2ccccc2)n1CC(=O)O [I-16]
100 to 500 nM,–,"Cc1c(Cc2ccccc2S(=O)(=O)c2ccccc2)cc(-c2ccccn2)n1CC(=O)O [I-17, 2-(2-methyl-3-(2-(phenylsulfonyl)benzyl)-5-(pyridin-2-yl)-1H-pyrrol-1-yl)acetic acid]"
> 500 nM,–,"Cc1c(Cc2ccccc2S(=O)(=O)c2ccccc2)cc(-c2ccccc2F)n1CC(=O)O [I-18, 2-(5-(2-fluorophenyl)-2-methyl-3-(2-(phenylsulfonyl)benzyl)-1H-pyrrol-1-yl)acetic acid]"
–,> 500 nM,"Cc1c(Cc2ccc(S(=O)(=O)N3CCCC3)cc2)c(C)n(CC(=O)O)c1CCO [I-20, 2-(2-(2-hydroxyethyl)-3,5-dimethyl-4-(4-(pyrrolidin-1-ylsulfonyl)benzyl)-1H-pyrrol-1-yl)acetic acid]"
5 to 100 nM,< 5 nM,"Cc1c(C#N)c(Cc2ccccc2S(=O)(=O)c2ccccc2)c(C)n1CC(=O)O [I-23, 2-(3-cyano-2,5-dimethyl-4-(2-(phenylsulfonyl)benzyl)-1H-pyrrol-1-yl)acetic acid]"
> 500 nM,5 to 100 nM,"Cc1c(Cc2ccccc2S(=O)(=O)c2ccccc2)cc(-c2ccc(C(F)(F)F)cc2)n1CC(=O)O [I-25, 2-(2-methyl-3-(2-(phenylsulfonyl)benzyl)-5-(4-(trifluoromethyl)phenyl)-1H-pyrrol-1-yl)acetic acid]"
> 500 nM,–,"Cc1c(Cc2ccccc2S(=O)(=O)c2ccccc2)cc(-c2ccccc2C(F)(F)F)n1CC(=O)O [I-27, 2-(2-methyl-3-(2-(phenylsulfonyl)benzyl)-5-(2-(trifluoromethyl)phenyl)-1H-pyrrol-1-yl)acetic acid]"
5 to 100 nM,< 5 nM,"Cc1cc(Sc2ccccc2S(=O)(=O)N2CCOCC2)c(C)n1CC(=O)O [I-29, 2-(2,5-dimethyl-3-(2-(morpholinosulfonyl)phenylthio)-1H-pyrrol-1-yl)acetic acid]"
5 to 100 nM,< 5 nM,"Cc1c(C#N)c(Cc2ccccc2S(=O)(=O)N2CCCC2)c(C)n1CC(=O)O [I-32, 2-(3-cyano-2,5-dimethyl-4-(2-(pyrrolidin-1-ylsulfonyl)benzyl)-1H-pyrrol-1-yl)acetic acid]"
5 to 100 nM,5 to 100 nM,"Cc1c(C#N)c(Cc2ccccc2S(=O)(=O)N2CCOCC2)c(C)n1CC(=O)O [I-46, 2-(3-cyano-2,5-dimethyl-4-(2-(morpholinosulfonyl)benzyl)-1H-pyrrol-1-yl)acetic acid]"
5 to 100 nM,< 5 nM,"CC(=O)c1c(Cc2ccccc2S(=O)(=O)c2ccccc2)c(C)n(CC(=O)O)c1C [I-52, 2-(3-acetyl-2,5-dimethyl-4-(2-(phenylsulfonyl)benzyl)-1H-pyrrol-1-yl)acetic acid]"
5 to 100 nM,< 5 nM,"CC(=O)c1c(Cc2ccccc2S(=O)(=O)N2CCCC2)c(C)n(CC(=O)O)c1C [I-53, 2-(3-acetyl-2,5-dimethyl-4-(2-(pyrrolidin-1-ylsulfonyl)benzyl)-1H-pyrrol-1-yl)acetic acid]"
5 to 100 nM,< 5 nM,"Cc1c(Cc2ccccc2S(=O)(=O)N2CCCC2)c(C(=O)c2ccccc2)c(C)n1CC(=O)O [I-55, 2-(3-benzoyl-2,5-dimethyl-4-(2-(pyrrolidin-1-ylsulfonyl)benzyl)-1H-pyrrol-1-yl)acetic acid]"
100 to 500 nM,> 500 nM,"Cc1cc(C(=O)c2ccccc2S(=O)(=O)N2CCOCC2)c(C)n1CC(=O)O [I-56, 2-(2,5-dimethyl-3-(2-(morpholinosulfonyl)benzoyl)-1H-pyrrol-1-yl)acetic acid]"
5 to 100 nM,< 5 nM,"Cc1c(Cc2ccccc2S(=O)(=O)N2CCCC2)c(-c2ccccc2)c(C)n1CC(=O)O [I-57, 2-(2,5-dimethyl-3-phenyl-4-(2-(pyrrolidin-1-ylsulfonyl)benzyl)-1H-pyrrol-1-yl)acetic acid]"
> 500 nM,–,"Cc1c(C#N)c(CC(=O)O)c(C)n1Cc1ccccc1S(=O)(=O)N1CCCC1 [I-73, 2-(4-cyano-2,5-dimethyl-1-(2-(pyrrolidin-1-ylsulfonyl)benzyl)-1H-pyrrol-3-yl)acetic acid]"
